Measurements as given in US10457700B2, “Platinum prodrugs and methods of making and using thereof” (UNIVERSITY OF GEORGIA RESEARCH FOUNDATION, INC., priority 2015, dated 2019).

Tests used:
PC3 cells = test: MTT cytotoxicity assay in PC3 cells; type: cell-based, human
Method: (§1) Human prostate cancer cell line PC3 and DU145 were procured from the American type culture collection (ATCC). Ovarian cancer A2780 cells were obtained from Prof, Robert Brown, Imperial College London. […] Cells were passed every 3 to 4 days and restarted from frozen stocks upon reaching 20 passages.
(§2) PC3, A2780, or A2780/CP70 cells (2000 cells/well/100 μL) were seeded on a 96-well plate in 100 μL of desired medium and incubated for 24 h. After 24 h, media was removed and fresh media was added. The cells were treated with different constructs at varying concentrations and incubated for 72 h at 37° C. in 5% CO2. The cells were then treated with 20 μL of MTT (5 mg/mL in PBS) for 5 h. The medium was removed, the cells were lysed with 100 μL of DMSO, and the absorbance of the purple formazan was recorded at 550 nm using a Bio-Tek Synergy HT microplate reader. The background absorbance for each well was measured at 800 nm. Each well was performed in triplicate. […] Cells were grown for 7 days in high glucose medium prior to the MTT experiment. Cytotoxicity was expressed as mean percentage increase relative to the unexposed control±SD. Control values were set at 0% cytotoxicity or 100% cell viability.

A2780/CP70 cells [1] = test: MTT cytotoxicity assay in cisplatin resistant A2780/CP70 cells; type: cell-based, human; details: 72 h
Method: as §1, §2

[2] = tested on: mitochondrial respiration of A2780/CP70 cells; test: MitoStress test, Seahorse XF24 (OCR); type: cell-based, human; details: 1 μM, 24 h
Description: Prior to the assay, XF sensor cartridges were hydrated. […] The parameters calculated included: basal respiration (baseline respiration minus antimycin-A post injection respiration), ATP turnover (baseline respiration minus oligomycin post injection respiration), maximal respiratory capacity (FCCP stimulated respiration minus antimycin-A post injection respiration) and reserve respiratory capacity (FCCP stimulated respiration minus baseline respiration).

[3] = tested on: intracellular GSH in A2780/CP70 cells; test: Cellular GSH assay with ThiolTracker Violet, flow cytometry; type: cell-based, human; details: 10 μM, 12 h
Method: The ability of Platin-B to interact with intracellular GSH in A2780/CP70 cells was investigated using the ThiolTracker Violet GSH detection reagent. Specifically, A2780/CP70 cells (4×10^5 cells/well/2 mL) were plated onto 6 well culture plates and allowed to grow overnight. […] After 12 h, both the attached and detached cells were collected by trypsinization, washed with PBS, and resuspended in Dulbecco's PBS (D-PBS) containing Ca^2+ and Mg^2+, glucose, and sodium pyruvate. The cells were then incubated with 10 μM (final concentration) ThiolTracker Violet for 30 min at 37° C. The cells were then washed with D-PBS, resuspended in buffer, and immediately analyzed on a flow cytometer with 405 nm excitation and 525 nm emission filters. The ThiolTracker Violet stain is a highly thiol reactive fluorescent probe and can be utilized in effective detection of intracellular GSH by quantitative detection modalities such as flow cytometry.

GST enzyme = test: GST enzymatic substrate competitive assay / cellular GST activity assay; type: biochemical; details: 50 or 100 μM, in buffer or A2780/CP70 cell lysates
Method: GST enzyme modulates GSH to attack on labile electrophilic halide containing molecules in cellular detoxification processes. […] GST enzymatic activity was evaluated by following the formation of GSH and 1-chloro-2,4-dinitrobenzene (CDNB) adduct.
This assay was performed according to the instruction given by the manufacturer (GST activity assay kit ab65326). AU the standard solutions were prepared as per the instruction. Samples were prepared in a total 50 μL volume with GST assay buffer, including a negative control with 50 μL of GST assay buffer only and a positive control (10 μL of GST positive control diluted to 1:50) and 40 μL of GST assay buffer only. Sample wells contained 10 μL of GST enzyme diluted to 1:50 and remaining of GST assay buffer. To each well, 5 μL GSH was added. 50 μL of substrate mix containing GST substrate CDNB (5 μL) was prepared. […] Then, 50 μL of substrate mix was added to each well including controls. The plate was stirred carefully to initiate the reaction and absorbance values were recorded once every minute at 340 nm using a plate reader to obtain 20 data points. GST activity was calculated through the kinetic plot obtained from the time (min) vs. optical density (OD340 nm) using the formula GST activity=ΔA340 min^−1/0.002777 μM·D/A, where D is the enzyme sample dilution factor and A is the enzyme sample volume added to each well. […]

[4] = Cyclic voltammetry, Pt(IV)/Pt(II) reduction potential; type: physicochemical; details: 0.1 M KCl
Method: Redox potential of platinum (IV) prodrugs play important roles in regulating efficacy. The disclosed Pt(IV) prodrugs can be activated selectively by intracellular reduction, preferably at the tumor sites to reduce side effects. Redox potential is a measure of the ability of Pt(IV) compounds to form the active platinum (II) species. Electrochemical measurements on Platin-B were carried out in dimethylformamide (DMF)-phosphate buffered saline (PBS) at pH 6.0 and 7.4. Specifically, a conventional three-electrode set-up comprising a glassy carbon working electrode, platinum wire auxiliary electrode, and Ag/AgCl (3M KCl) reference electrode was used for electrochemical measurements. The electrochemical data were uncorrected for junction potentials. KCl was used as a supporting electrolyte. Platin-B (2 mM) solutions were prepared in 40% DMF phosphate buffered saline (PBS) of pH 6.0 and 7.4 with 0.1 M KCl and voltammograms were recorded at different scan rates.

A2780/CP70 cells [5] = test: Apoptosis detection by Annexin V-PI assay; type: cell-based, human; details: 50 μM, 12 h
Method: Enhanced activity of Platin-B in A2780/CP70 cells was further confirmed by Annexin-V-propidium iodide (PI) apoptosis-necrosis assay. […] The cells were trypsinized, repeatedly washed collecting the supernatants, and centrifuged at 754×g for 3 min, and the supernatants were collected. Cell density was determined and cells were resuspended in 1× annexinV-binding buffer to 1×10^6 cells/mL preparing a sufficient volume to have 100 μL per assay. To 100 μL of cell suspension, 5 μL ALEXA FLUOR™ 488 annexin V and 1 μL of 100 μg/mL PI working solution were added, incubated for 15 min at room temperature. After the incubation period, 400 μL of 1× annexin-binding buffer was added to each sample, samples were gently mixed keeping the samples on ice, and the samples were analyzed on the flow cytometer immediately.

[6] = tested on: citrate synthase activity in A2780/CP70 cells; test: Citrate synthase activity assay; type: cell-based, human; details: 1 μM, 24 h
Method: Citrate synthase activity assay was performed by following the instruction given in MitoCheck Citrate Synthase Activity assay kit (Cayman item no. 701040). Briefly, A2780/CP70 cells were seeded at a density of 1.2×10^6 cells/7 mL in 25 cm^2 cell culture flask and grown overnight. […] The cells were then scraped in presence of fresh media and centrifuged to obtain the cell pellet. The resultant pellet was washed 2 times with 1×PBS and solubilized in 200 μL extraction buffer. This cell suspension was incubated on ice for 20 min followed by centrifugation at 16000×g for 20 minutes at 4° C. The supernatant was collected and used for measuring the citrate synthase activity after 1:200 dilutions. Protein concentration in the samples was measured using BCA assay. […] Finally 20 μL of the substrate oxaloacetate from tube B was added to each well and absorbance was recorded immediately at 412 nm (50 seconds interval for 30 min at room temperature). The citrate synthase activity was calculated through the kinetic plot obtained from the time (min) vs. optical density (OD=412 nm) using the formula: CS Activity=(ΔA412 min−1/5.712 mM−×0.1 mL/0.03 mL)×sample dilution nmoles/min/mL. […]

**Q.** For `O=C(O)CCCCCBr` [6-BH, 6-bromohexanoic acid], which IC50 (PC3 cells; Homo sapiens, PC-3, 72 h) is on record?
**A.** The IC50 was greater than 100 µM.

**Q.** And the IC50 (A2780/CP70 cells [1]; Homo sapiens)?
**A.** Its IC50 is greater than 100 µM.

**Q.** With `N.N.[Cl][Pt][Cl]` [Cisplatin, cis-diamminedichloridoplatinum(II), reference compound] as the compound, how does the IC50 (PC3 cells; 72 h) read?
**A.** Its IC50 is 14.4 ± 1.6 µM.

**Q.** And the IC50 (A2780/CP70 cells [1])?
**A.** Its IC50 is 14.7 ± 0.9 µM.

**Q.** And the “effect on mitochondrial respiration (OCR)” value [2]?
**A.** The value was “did not demonstrate such activities”.

**Q.** And the “effect on intracellular GSH levels” value [3]?
**A.** The value was “minimal effect”.

**Q.** Which “effect on mitochondrial respiration (OCR)” value [2] does the source give for `[NH2][Pt]([NH2])([Cl])([Cl])([O]C(=O)CCCCCBr)[O]C(=O)CCCCCBr` [Platin-B] here?
**A.** Its value is “inhibited mitochondrial respiration significantly”.

**Q.** What about the “GSH conjugation catalyzed by GST” value (GST enzyme) of the same compound?
**A.** Its value is “more efficient”.

**Q.** And the “Pt(IV)/Pt(II) couple reduction potential” value ([4]; pH 6.0, 40% DMF-PBS)?
**A.** The value was ~−0.187 V vs. normal hydrogen electrode (NHE).

**Q.** What about the “Pt(IV)/Pt(II) couple reduction potential” value ([4]; pH 7.4, 40% DMF-PBS) of the same compound?
**A.** The value was ~−0.217 V vs. normal hydrogen electrode (NHE).

**Q.** What about the “sensitivity of resistant cells (Annexin V-PI apoptosis-necrosis)” value (A2780/CP70 cells [5]) of the same compound?
**A.** Its value is “high degree of sensitivity”.

**Q.** What about the “effect on intracellular GSH levels” value [3] of the same compound?
**A.** The value was “enhanced ability to reduce GSH levels”.

**Q.** What about the “mitochondrial content by citrate synthase activity” value [6] of the same compound?
**A.** The value was “lower mitochondrial content”.
